In the supplement of paper PMC11061612:

Legend:
Experiment in all cases: Bliss excess, mean over the matrix (fraction); higher = more synergy
[1] = tested on: CHSA8926 (Chondrosarcoma)
In short: (§1)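 Cell lines in DMEM/F12 or RPMI with 10% FBS were plated in 1536-well plates, held 24 hours at 37°C, 5% CO2, then given two-drug dose matrices for 72 hours (DMSO typically 0.2%). Viability was read by CellTiter-Glo 2.0 luminescence and scaled as inhibition from 0 (vehicle wells) to 1 (blank wells). Combination Emax is the second-highest inhibition in the matrix; Bliss excess is observed combination effect minus expected EA + EB − EA·EB, EA and EB being single-agent effects.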

[2] = tested on: DAN-G (Pancreatic Carcinoma)
In short: as §1

[3] = tested on: ESO51 (Esophageal Adenocarcinoma)
In short: as §1

[4] = tested on: HCC1187 (Breast Carcinoma)
In short: as §1

[5] = tested on: HCC1419 (Breast Carcinoma)
In short: as §1

[6] = tested on: IM-95 (Gastric Carcinoma)
In short: as §1

[7] = tested on: KMS-12-BM (Plasma Cell Myeloma)
In short: as §1

[8] = tested on: KP-3 (Pancreatic Carcinoma)
In short: as §1

[9] = tested on: KYSE-270 (Esophageal Squamous Cell Carcinoma)
In short: as §1

[10] = tested on: M059J (Glioblastoma)
In short: as §1

[11] = tested on: MN-60 (B-Lymphoblastic Leukemia)
In short: as §1

[12] = tested on: MOLM-13 (Acute Myeloid Leukemia)
In short: as §1

[13] = tested on: NCI-H2731 (Mesothelioma)
In short: as §1

[14] = tested on: NCI-H520 (Squamous Cell Lung Carcinoma)
In short: as §1

[15] = tested on: NCI-H526 (Small Cell Lung Carcinoma)
In short: as §1

[16] = tested on: SJSA-1 (Osteosarcoma)
In short: as §1

[17] = tested on: SK-GT-2 (Gastric Carcinoma)
In short: as §1

[18] = tested on: SNU-398 (Hepatocellular Carcinoma)
In short: as §1

[19] = tested on: ST486 (Burkitt's Lymphoma)
In short: as §1

[20] = tested on: T-T (Esophageal Squamous Cell Carcinoma)
In short: as §1

| SMILES | Bliss excess [1] | Bliss excess [2] | Bliss excess [3] | Bliss excess [4] | Bliss excess [5] | Bliss excess [6] | Bliss excess [7] | Bliss excess [8] | Bliss excess [9] | Bliss excess [10] | Bliss excess [11] | Bliss excess [12] | Bliss excess [13] | Bliss excess [14] | Bliss excess [15] | Bliss excess [16] | Bliss excess [17] | Bliss excess [18] | Bliss excess [19] | Bliss excess [20] |
| --- | --- | --- | --- | --- | --- | --- | --- | --- | --- | --- | --- | --- | --- | --- | --- | --- | --- | --- | --- | --- |
| COc1nnc2ccc(N3CCC(c4ccc(OCCN5CCN(C)C(=O)[C@H]5C)cc4)CC3)nn12 [AZD5153] + C[C@@H]1COCCN1C2=NC(=NC(=C2)C3(CC3)[S@](=N)(=O)C)C4=C5C=CNC5=NC=C4 [AZD6738] (first compound max 1 µM, 7x7, partner max 10 µM) | 0.0437 | 0.0374 | -0.0476 | 0.0265 | -0.0517 | 0.0268 | -0.0167 | 0.0527 | -0.0544 | -0.0647 | -0.0638 | -0.0068 | 0.0266 | 0.07 | -0.044 | -0.0398 | 0.0773 | 0.0758 | -0.0692 | -0.0179 |
| CC1(C)CCC(CN2CCN(c3ccc(C(=O)NS(=O)(=O)c4ccc(NCC5CCOCC5)c([N+](=O)[O-])c4)c(Oc4cnc5[nH]ccc5c4)c3)CC2)=C(c2ccc(Cl)cc2)C1 [Venetoclax] + Cc1cc2ncnn2cc1Nc1ncc2c(n1)n(C1CCOCC1)c(=O)n2C [AZD7648] (first compound max 1 µM, 7x7, partner max 10 µM) | -0.0023 | -0.0106 | -0.0308 | -0.0061 | -0.0116 | -0.0192 | 0.0378 | -0.0358 | -0.0281 | -0.0144 | -0.0125 | 0.0014 | -0.0272 | 0.0114 | 0.0079 | -0.0404 | -0.0053 | -0.0427 | -0.0376 | 0.0109 |
| CC1(C)CCC(CN2CCN(c3ccc(C(=O)NS(=O)(=O)c4ccc(NCC5CCOCC5)c([N+](=O)[O-])c4)c(Oc4cnc5[nH]ccc5c4)c3)CC2)=C(c2ccc(Cl)cc2)C1 [Venetoclax] + COc1cc(Nc2ncc3c(n2)-c2ccc(Cl)cc2C(c2c(F)cccc2OC)=NC3)ccc1C(=O)O [Alisertib] (first compound max 1 µM, 7x7, partner max 10 µM) | -0.025 | -0.0024 | -0.0192 | -0.0999 | -0.0573 | 0.005 | 0.085 | -0.0376 | -0.016 | 0.0401 | 0.0368 | 0.0371 | -0.0311 | -0.0425 | 0.194 | -0.0583 | -0.0274 | -0.0219 | -0.133 | 0.0325 |
| Cn1cnc2c(F)c(Nc3ccc(Br)cc3Cl)c(C(=O)NOCCO)cc21 [Selumetinib] + C=CCn1c(=O)c2cnc(Nc3ccc(N4CCN(C)CC4)cc3)nc2n1-c1cccc(C(C)(C)O)n1 [AZD1775] (first compound max 10 µM, partner max 1 µM) | -0.0377 | 0.014 | -0.0767 | -0.0201 | -0.0697 | 0.0309 | -0.0355 | -0.0312 | -0.0654 | -0.0499 | -0.0154 | -0.0414 | -0.042 | -0.0795 | -0.052 | -0.0275 | -0.0872 | 0.0182 | 0.0165 | -0.056 |
| Cc1c2c(nn1C)CSCc1cc(n(C)n1)CSc1cc(c3ccccc3c1)OCCCc1c(C(=O)O)n(C)c3c-2c(Cl)ccc13 [AZD5991] + C=CCn1c(=O)c2cnc(Nc3ccc(N4CCN(C)CC4)cc3)nc2n1-c1cccc(C(C)(C)O)n1 [AZD1775] (first compound max 1 µM, partner max 1 µM) | -0.0155 | 0.0424 | 0.011 | -0.0342 | -0.106 | 0.0201 | -0.0082 | 0.0154 | 0.013 | -0.0191 | -0.0077 | -0.0021 | -0.0336 | 0.0221 | -0.0063 | 0.0115 | -0.0033 | 0.0149 | -0.0067 | 0.0282 |
| Cc1c2c(nn1C)CSCc1cc(n(C)n1)CSc1cc(c3ccccc3c1)OCCCc1c(C(=O)O)n(C)c3c-2c(Cl)ccc13 [AZD5991] + C1CN(CCC1(C(=O)N[C@@H](CCO)C2=CC=C(C=C2)Cl)N)C3=NC=NC4=C3C=CN4 [Capivasertib] (first compound max 1 µM, 7x7, partner max 3 µM) | 0.0131 | -0.0535 | -0.0239 | -0.0023 | 0.0163 | -0.0384 | 0.0127 | -0.0102 | 0.0421 | -0.101 | 0.0165 | -0.002 | -0.0722 | -0.0548 | 0.0139 | -0.0248 | -0.0049 | 0.034 |  | -0.0068 |
| Cc1c2c(nn1C)CSCc1cc(n(C)n1)CSc1cc(c3ccccc3c1)OCCCc1c(C(=O)O)n(C)c3c-2c(Cl)ccc13 [AZD5991] + Cc1cc2ncnn2cc1Nc1ncc2c(n1)n(C1CCOCC1)c(=O)n2C [AZD7648] (first compound max 1 µM, 7x7, partner max 10 µM) | -0.0376 | -0.0402 | -0.0216 | -0.0299 | -0.0196 | -0.0615 | -0.0033 | -0.0462 | -0.0342 | -0.0726 | 0.0011 | -0.0165 | -0.0637 | -0.0453 | -0.0042 | 0.0585 | 0.0164 | -0.0125 | -0.053 | 0.007 |
| COc1cccc2c1C(=O)c1c(O)c3c(c(O)c1C2=O)C[C@@](O)(C(=O)CO)C[C@@H]3O[C@H]1C[C@H](N)[C@H](O)[C@H](C)O1 [Doxorubicin] + Cc1cc2ncnn2cc1Nc1ncc2c(n1)n(C1CCOCC1)c(=O)n2C [AZD7648] (first compound max 1 µM, 7x7, partner max 10 µM) | -0.0053 | 0.0173 | 0.0291 | 0.114 | -0.128 | 0.016 | 0.0946 | -0.0405 | 0.0494 | -0.0255 | 0.0759 | 0.0551 | 0.0506 | 0.0158 | 0.0586 | 0.0555 | -0.0051 | 0.056 | 0.0895 | 0.0318 |
| C[C@@H]1COCCN1c1cc(C2([S@](C)(=N)=O)CC2)nc(-c2ccnc3[nH]ccc23)n1 [AZD6738] + O=C(c1cc(Cc2n[nH]c(=O)c3ccccc23)ccc1F)N1CCN(C(=O)C2CC2)CC1 [Olaparib] (first compound max 10 µM, 7x7, partner max 10 µM) | 0.01 | -0.0051 | -0.102 | 0.0586 | -0.0175 | 0.031 | -0.0189 | 0.0143 | -0.013 | 0.0113 | -0.042 | -0.0526 | -0.0266 | 0.044 | -0.0072 | -0.0371 | 0.0148 | 0.0108 | -0.0026 | -0.0237 |
| COc1cccc(OCCCN)c1-c1cc(Nc2cnc(C#N)cn2)n[nH]1 [Prexasertib] + C[C@@H]1COCCN1C2=NC(=NC(=C2)C3(CC3)[S@](=N)(=O)C)C4=C5C=CNC5=NC=C4 [AZD6738] (first compound max 1 µM, 7x7, partner max 10 µM) | 0.0171 | -0.0309 | -0.0632 | 0.0754 | -0.0473 | 0.0244 | -0.0071 | 0.0162 | -0.0323 | -0.0325 | -0.0035 | -0.0051 | -0.0089 | -0.0481 | 0.0283 | 0.0188 | -0.0043 | 0.026 | -0.0336 | 0.0178 |
| C[C@@H](c1ccc2nccn2c1)n1nnc2ncc(-c3cnn(C)c3)nc21 [Savolitinib] + CN(CC[C@H](CSC1=CC=CC=C1)NC2=C(C=C(C=C2)S(=O)(=O)NC(=O)C3=CC=C(C=C3)N4CCC(CC4)[C@H](C5=CC=CC=C5C6=CC=C(C=C6)Cl)O)S(=O)(=O)C(F)(F)F)CCO [AZD4320] (first compound max 1 µM, 7x7, partner max 1 µM) | -0.0241 | -0.0378 | -0.0038 | -0.0091 | -0.0736 | -0.0477 | -0.0005 |  |  |  |  | 0.0288 |  |  |  |  | -0.0294 | -0.0665 |  |  |
| COc1nnc2ccc(N3CCC(c4ccc(OCCN5CCN(C)C(=O)[C@H]5C)cc4)CC3)nn12 [AZD5153] + CN(CC[C@H](CSC1=CC=CC=C1)NC2=C(C=C(C=C2)S(=O)(=O)NC(=O)C3=CC=C(C=C3)N4CCC(CC4)[C@H](C5=CC=CC=C5C6=CC=C(C=C6)Cl)O)S(=O)(=O)C(F)(F)F)CCO [AZD4320] (first compound max 1 µM, 7x7, partner max 1 µM) | -0.0781 | 0.0358 | -0.0079 | 0.0165 | -0.0403 | -0.0568 | 0.0143 |  |  |  |  | 0.0205 |  |  |  |  | 0.0412 | -0.0093 |  |  |
| C=CCn1c(=O)c2cnc(Nc3ccc(N4CCN(C)CC4)cc3)nc2n1-c1cccc(C(C)(C)O)n1 [AZD1775] + C1CN(CCC1(C(=O)N[C@@H](CCO)C2=CC=C(C=C2)Cl)N)C3=NC=NC4=C3C=CN4 [Capivasertib] (first compound max 3 µM, partner max 3 µM) | 0.0361 | -0.0191 | -0.004 | 0.0216 | -0.005 | 0.0275 | 0.0629 | 0.0131 |  | -0.064 | -0.0565 | 0.0263 | 0.0078 | -0.0771 | -0.06 | -0.0088 | 0.0174 | 0.0054 | 0.0215 | -0.0047 |
| CN(CCO)CC[C@H](CSc1ccccc1)Nc1ccc(S(=O)(=O)NC(=O)c2ccc(N3CCC([C@@H](O)c4ccccc4-c4ccc(Cl)cc4)CC3)cc2)cc1S(=O)(=O)C(F)(F)F [AZD4320] + C[C@@H]1COCCN1C2=NC(=NC(=C2)C3(CC3)[S@](=N)(=O)C)C4=C5C=CNC5=NC=C4 [AZD6738] (first compound max 1 µM, 7x7, partner max 10 µM) | -0.011 | -0.0315 | -0.0203 | -0.0209 | -0.0752 | -0.021 | 0.0012 | -0.042 | 0.0161 |  | -0.0472 | 0.0272 | -0.0178 | -0.0547 | -0.0302 | -0.113 | 0.0109 | -0.0452 | -0.0502 | 0.0494 |
